Measurements: patent US4746658A, “2-phenyl-imidazo-pyrazines, -pyridazines and -triazines” (Dr. Karl Thomae GmbH, priority 1983, dated 1988)

System: anesthetized cat
Test: Determination of the effect on blood pressure and of the positive inotropic effect in the anesthetized cat
Assay type: in vivo
Details: injected into vena femoralis, average, at least 3 cats; for Effect on blood pressure in mm Hg (first figure of pair) / Effect on blood pressure in mm Hg (second figure of pair): arterial pressure in aorta abdominalis
Experimental: The above pharmacological properties were ascertained for the compounds of the present invention by the standard pharmacological test method described below, and the results of this test for two representative species of the genus are shown in the table below, where
Determination of the effect on blood pressure and of the positive inotropic effect in the anesthetized cat
The tests were carried out on cats which had been anesthetized with sodium pentobarbital (40 mg/kg i.p.). The animals breathed spontaneously. The arterial blood pressure was measured in the aorta abdominalis with a Statham pressure transducer (P 23 Dc). In order to determine the positive inotropic activity, the pressure in the left ventricle was measured with a catheter-tip manometer (Millar PC-350 A). From this the contractility parameter dp/dt was obtained, using an analog differentiator. The test compounds were injected into a vena femoralis. Polydiol 200 was used as the solvent. Each compound was tested on at least 3 cats.

Row | Compound | Effect on blood pressure in mm Hg (first figure of pair) (0.6 mg/kg) [mm Hg] | Effect on blood pressure in mm Hg (second figure of pair) (0.6 mg/kg) [mm Hg] | Duration of activity (half life) (0.6 mg/kg) [min] | Increase in dp/dtmax in % (0.6 mg/kg) [%] | Effect on blood pressure in mm Hg (first figure of pair) (0.3 mg/kg) [mm Hg] | Effect on blood pressure in mm Hg (second figure of pair) (0.3 mg/kg) [mm Hg] | Duration of activity (half life) (0.3 mg/kg) [min] | Increase in dp/dtmax in % (0.3 mg/kg) [%]
1 | COc1cc(OS(C)(=O)=O)ccc1-c1nc2nccnc2[nH]1 [A, 2-(2-methoxy-4-methanesulfonyloxy-phenyl)-imidazo[4,5-b]pyrazine] | -24 | -21 | 20 | 54 | – | – | – | –
2 | COc1cc(OS(C)(=O)=O)ccc1-c1nc2cnncc2[nH]1 [B, 2-(2-Methoxy-4-methanesulfonyloxy-phenyl)-imidazo[4,5-d]pyridazine] | – | – | – | – | -31 | -18 | 38 | 36
